Results as given in patent EP0532097A1, “Piperazinyl(sulfon)amide derivatives of camphor as oxytocin antagonists” (MERCK & CO. INC., priority 1991, dated 1993).

Biological target: T1, uterine OT receptors (Rattus norvegicus, UniProt P70536)
T1 construct: using a crude membrane preparation of uteri; from tissue; host or cells: uterus of DES-treated rats, crude membrane preparation
T1 sequence (P70536 1-388): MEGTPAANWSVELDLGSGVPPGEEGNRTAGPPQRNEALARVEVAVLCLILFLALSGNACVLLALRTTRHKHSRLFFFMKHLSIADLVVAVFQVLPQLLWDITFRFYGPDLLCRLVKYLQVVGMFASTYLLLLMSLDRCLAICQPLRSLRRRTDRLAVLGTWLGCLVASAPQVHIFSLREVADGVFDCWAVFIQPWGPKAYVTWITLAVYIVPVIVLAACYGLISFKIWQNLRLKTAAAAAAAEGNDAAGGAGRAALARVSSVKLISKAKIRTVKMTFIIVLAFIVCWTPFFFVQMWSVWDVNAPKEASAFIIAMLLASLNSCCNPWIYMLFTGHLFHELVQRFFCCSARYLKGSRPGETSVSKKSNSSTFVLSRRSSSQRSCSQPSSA
Assay: [³H]Oxytocin radioligand binding assay, crude membrane preparation of uteri from DES-treated rats
Details: for IC50: competition with 1 nM [³H]OT, 60 minutes, 22°C, concentration that inhibits 50% of OT, read-out: IC50; for inhibition at 0.1 µM: read-out: inhibition at 100 nM
Experimental: The high affinity binding of [³H] Oxytocin (OT)([tyrosyl, 3,5-[³H]OT; 30-60 Ci/mmol; New England Nuclear. Boston, MA) to uterine OT receptors was based on an assay (Fuchs, A-R; Fuchs, F; Soloff, MS. 1985 J. Clin. Endocrinol. Metab. 60:37) using a crude membrane preparation of uteri taken from diethylstilbestrol dipropionate (DES)-treated (0.3 mg/kg, ip; 18-24) rats. Competition studies were conducted at equilibrium (60 minutes; 22°C) using 1 nM[³H]OT in the following assay buffer: 50 mM Tris-HCl, 5 mM MgCl₂, and 0.1% BSA, pH 7.4. Nonspecific binding (10% of the total binding) was determined using 1 mM unlabeled OT and the binding reaction was terminated by filtration through glass fiber filters using a cell harvester (model 7019, Skatron, Inc., Sterling, VA). IC₅₀ (the concentration of tested compound that inhibits 50% of OT) was reported, unless otherwise noted.

Row | IC50 | inhibition at 0.1 µM | Compound | further results
1 | 110 nM |  | Cc1ccccc1N1CCN(S(=O)(=O)C[C@]23CC[C@H](C[C@@H]2NC(=O)Cc2c[nH]cn2)C3(C)C)CC1 [Example 43] | 
2 | 26 nM |  | Cc1ccccc1N1CCN(S(=O)(=O)C[C@]23CC[C@H](C[C@@H]2NC(=O)C(C)c2c[nH]cn2)C3(C)C)CC1 (stereo partly drawn) [Example 44, 1-((7,7-Dimethyl-2-endo-(2-(4-imidazolyl)propanoyl)-amino-bicyclo-(2.2.1)heptan-1-yl)methanesulfonyl)-4-(2-methylphenyl)piperazine] | 
3 |  | 66% | CCOC(=O)CN1CCCC(C(=O)NCC(C)C2(O)CC3CCC2(CS(=O)(=O)N2CCN(c4ccccc4C)CC2)C3(C)C)C1 (stereo not drawn) [Example 50, 1-((7,7-Dimethyl-2-exo-hydroxy-2-endo-2-(1-(3-(1-ethoxycarbonyl-methyl)piperidinylcar-bonyl)amino)propyl-bicyclo(2.2.1)heptan-1-yl)methanesulfonyl)-4-(2-methylphenyl)piperazine] | 
4 |  | 66% | CCOC(=O)CN1CCCC1C(=O)NCC(C)C1(O)CC2CCC1(CS(=O)(=O)N1CCN(c3ccccc3C)CC1)C2(C)C (stereo not drawn) [Example 52, 1-((7,7-Dimethyl-2-exo-hydroxy-2-endo-2-(1-(l-n-(ethoxycarboxymethyl)-prolyl)amino)propyl-bicyclo-(2.2.1)heptan-1-yl)methanesulfonyl)-4-(2-methylphenyl)piperazine] | 
5 |  | 66% | CCOC(=O)CN1CCC(C(=O)NCC(C)C2(O)CC3CCC2(CS(=O)(=O)N2CCN(c4ccccc4C)CC2)C3(C)C)CC1 (stereo not drawn) [Example 57, 1-((7,7-Dimethyl-2-exo-hydroxy-2-endo-2-(1-(3-(1-ethoxycarbonyl-methyl)piperidinylcar-bonyl)amino)propyl-bicyclo(2.2.1)heptan-1-yl)methanesulfonyl)-4-(2-methylphenyl)piperazine] | 
6 | 35 nM |  | Two isomers of 1-((7,7-dimethyl-2-exo-hydroxy-2-endo-2-(1-(3-methoxycarbonyl)-2-pyrrolidinon-1-yl)propylbicyclo-(2.2.1)heptan-1-yl)methanesulfonyl)-4-(2-methylphenyl)piperazine [Example 26] | 
7 |  |  | [³H]OT [reference compound] | Kd (saturation binding assay, uterus): 0.7 nM
